From ChEMBL document CHEMBL4138149, “Discovery of 1-(3-aryl-4-chlorophenyl)-3-(p-aryl)urea derivatives against breast cancer by inhibiting PI3K/Akt/mTOR and Hedgehog signalings” (Eur J Med Chem, 2017)
The source made the active and inactive calls. The calls are words filed in the database; no cut-off is given here.

Key:
T47D [1] = assay: Cytotoxicity against human T47D cells after 72 hrs by MTT assay; format: functional, cell-based
T47D [2] = assay: Induction of apoptosis in human T47D cells assessed as live cells at 10 uM after 48 hrs by Annexin-V-FITC/propidium iodide staining based flow cytometric method (reference value: 86.2%); format: functional
MDA-MB-231 [3] = assay: Induction of apoptosis in human MDA-MB-231 cells assessed as necrotic cells at 5 uM after 48 hrs by Annexin-V-FITC/propidium iodide staining based flow cytometric method (reference value: 0.086%); format: functional
MDA-MB-231 [4] = assay: Induction of apoptosis in human MDA-MB-231 cells assessed as late apoptotic cells at 10 uM after 48 hrs by Annexin-V-FITC/propidium iodide staining based flow cytometric method (reference value: 5%); format: functional
MCF7 = assay: Cytotoxicity against human MCF7 cells after 72 hrs by MTT assay; format: functional, cell-based; conditions: MCF7, 72 h
MDA-MB-231 [5] = assay: Inhibition of PI3K/Akt/mTOR signaling in human MDA-MB-231 cells assessed as reduction in phosphorylation of S6K at Thr412 residue at 5 uM measured within 4 hrs by Western blot analysis; format: cell-based
MDA-MB-231 [6] = assay: Induction of apoptosis in human MDA-MB-231 cells assessed as early apoptotic cells at 5 uM after 48 hrs by Annexin-V-FITC/propidium iodide staining based flow cytometric method (reference value: 0.634%); format: functional
[7] = molecular target: Phosphatidylinositol 4,5-bisphosphate 3-kinase catalytic subunit alpha isoform (Homo sapiens) (UniProt P42336); assay: Inhibition of PI3Kalpha (unknown origin) at 5 uM using PIP2 as substrate measured after 1 hr by Kinase-Glo luminescent assay relative to control
Sequence of Phosphatidylinositol 4,5-bisphosphate 3-kinase catalytic subunit alpha isoform (Homo sapiens) (P42336 whole entry, canonical isoform): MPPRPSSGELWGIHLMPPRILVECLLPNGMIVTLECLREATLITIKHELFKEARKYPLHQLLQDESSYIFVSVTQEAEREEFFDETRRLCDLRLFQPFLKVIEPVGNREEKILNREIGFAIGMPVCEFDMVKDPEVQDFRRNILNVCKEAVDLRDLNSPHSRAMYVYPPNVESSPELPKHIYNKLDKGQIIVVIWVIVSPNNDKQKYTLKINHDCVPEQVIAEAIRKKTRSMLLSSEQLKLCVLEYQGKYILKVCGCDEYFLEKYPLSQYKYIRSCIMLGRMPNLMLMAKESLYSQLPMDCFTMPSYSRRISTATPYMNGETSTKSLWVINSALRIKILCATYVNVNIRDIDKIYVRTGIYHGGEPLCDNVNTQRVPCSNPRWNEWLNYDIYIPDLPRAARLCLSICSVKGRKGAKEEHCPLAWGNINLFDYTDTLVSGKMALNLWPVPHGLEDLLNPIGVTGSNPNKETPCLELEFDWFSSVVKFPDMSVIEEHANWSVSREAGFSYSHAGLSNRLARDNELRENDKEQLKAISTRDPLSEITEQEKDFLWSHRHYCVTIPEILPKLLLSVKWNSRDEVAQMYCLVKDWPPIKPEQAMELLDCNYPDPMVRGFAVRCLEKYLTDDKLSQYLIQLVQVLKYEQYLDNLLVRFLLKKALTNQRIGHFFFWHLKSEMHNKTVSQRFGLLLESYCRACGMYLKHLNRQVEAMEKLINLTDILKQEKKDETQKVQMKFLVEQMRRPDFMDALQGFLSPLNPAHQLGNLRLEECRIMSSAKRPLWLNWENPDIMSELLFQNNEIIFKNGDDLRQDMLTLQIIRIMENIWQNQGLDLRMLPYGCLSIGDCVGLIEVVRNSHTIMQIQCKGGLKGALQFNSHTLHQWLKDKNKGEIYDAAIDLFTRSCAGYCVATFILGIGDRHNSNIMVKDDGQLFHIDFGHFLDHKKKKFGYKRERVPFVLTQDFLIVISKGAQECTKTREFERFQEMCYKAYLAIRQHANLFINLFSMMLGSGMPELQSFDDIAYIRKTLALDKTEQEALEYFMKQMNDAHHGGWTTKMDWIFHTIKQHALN

MDA-MB-231 [8] = assay: Induction of apoptosis in human MDA-MB-231 cells assessed as live cells at 5 uM after 48 hrs by Annexin-V-FITC/propidium iodide staining based flow cytometric method (reference value: 94.3%); format: functional
MDA-MB-231 [9] = assay: Induction of apoptosis in human MDA-MB-231 cells assessed as early apoptotic cells at 10 uM after 48 hrs by Annexin-V-FITC/propidium iodide staining based flow cytometric method (reference value: 0.634%); format: functional
MDA-MB-231 [10] = assay: Induction of apoptosis in human MDA-MB-231 cells assessed as live cells at 10 uM after 48 hrs by Annexin-V-FITC/propidium iodide staining based flow cytometric method (reference value: 94.3%); format: functional
T47D [11] = assay: Induction of apoptosis in human T47D cells assessed as necrotic cells at 10 uM after 48 hrs by Annexin-V-FITC/propidium iodide staining based flow cytometric method (reference value: 0.135%); format: functional
MDA-MB-231 [12] = assay: Inhibition of PI3K/Akt/mTOR signaling in human MDA-MB-231 cells assessed as reduction in AKT phosphorylation at Ser473 residue at 5 uM by Western blot analysis; format: cell-based; conditions: TDE = time-dependent effect
T47D [13] = assay: Induction of apoptosis in human T47D cells assessed as live cells at 5 uM after 48 hrs by Annexin-V-FITC/propidium iodide staining based flow cytometric method (reference value: 86.2%); format: functional
T47D [14] = assay: Induction of apoptosis in human T47D cells assessed as early apoptotic cells at 10 uM after 48 hrs by Annexin-V-FITC/propidium iodide staining based flow cytometric method (reference value: 4.49%); format: functional
T47D [15] = assay: Induction of apoptosis in human T47D cells assessed as early apoptotic cells at 5 uM after 48 hrs by Annexin-V-FITC/propidium iodide staining based flow cytometric method (reference value: 4.49%); format: functional
T47D [16] = assay: Induction of apoptosis in human T47D cells assessed as late apoptotic cells at 5 uM after 48 hrs by Annexin-V-FITC/propidium iodide staining based flow cytometric method (reference value: 9.18%); format: functional
T47D [17] = assay: Induction of apoptosis in human T47D cells assessed as necrotic cells at 5 uM after 48 hrs by Annexin-V-FITC/propidium iodide staining based flow cytometric method (reference value: 0.135%); format: functional
MDA-MB-231 [18] = assay: Inhibition of PI3K/Akt/mTOR signaling in human MDA-MB-231 cells assessed as reduction in phosphorylation of S6K at Thr389 residue at 5 uM measured within 4 hrs by Western blot analysis; format: cell-based
MDA-MB-231 [19] = assay: Antimigratory activity against human MDA-MB-231 cells at 5 to 10 uM after 24 hrs by tryphan blue staining based transwell assay; format: functional, cell-based
T47D [20] = assay: Induction of apoptosis in human T47D cells assessed as late apoptotic cells at 10 uM after 48 hrs by Annexin-V-FITC/propidium iodide staining based flow cytometric method (reference value: 9.18%); format: functional
MDA-MB-231 [21] = assay: cells; conditions: Homo sapiens, MDA-MB-231, 72 h
Description: Cytotoxicity against human MDA-MB-231 cells after 72 hrs by MTT assay

MDA-MB-231 [22] = assay: Inhibition of Hedgehog signaling in human MDA-MB-231 cells assessed as reduction in SAG-induced elevation of Gli1 expression at 5 to 10 uM after 48 hrs by Western blot analysis; format: cell-based
PC-3 = assay: Cytotoxicity against human PC3 cells after 72 hrs by MTT assay; format: functional, cell-based; conditions: PC-3, 72 h
MDA-MB-231 [23] = assay: Induction of apoptosis in human MDA-MB-231 cells assessed as necrotic cells at 10 uM after 48 hrs by Annexin-V-FITC/propidium iodide staining based flow cytometric method (reference value: 0.086%); format: functional
[24] = molecular target: Serine/threonine-protein kinase mTOR (Homo sapiens, UniProt P42345); assay: Inhibition of mTOR (unknown origin) using Ulight-4EBP1 peptide as substrate measured after 1 hr by Lance Ultra assay
MDA-MB-231 [25] = assay: Induction of apoptosis in human MDA-MB-231 cells assessed as late apoptotic cells at 5 uM after 48 hrs by Annexin-V-FITC/propidium iodide staining based flow cytometric method (reference value: 5%); format: functional
[26] = molecular target: Phosphatidylinositol 4,5-bisphosphate 3-kinase catalytic subunit alpha isoform (Homo sapiens) (UniProt P42336); assay: Inhibition of PI3Kalpha (unknown origin) at 50 uM using PIP2 as substrate measured after 1 hr by Kinase-Glo luminescent assay relative to control

Structure (SMILES): O=C(Nc1ccc(-c2cc(N3CCOCC3)nc(N3CCOCC3)n2)cc1)Nc1ccc(Cl)c(-c2ccccn2)c1
- IC50 (T47D [1]): 35.1 µM

Structure (SMILES): O=C(Nc1ccc(-c2nc(N3CCOCC3)nc(N3CCOCC3)n2)cc1)Nc1ccc(Cl)c(-c2ccncc2)c1
- Activity (T47D [2]): 13.9%
- Activity (MDA-MB-231 [3]): 1.17%
- IC50 (T47D [1]): 7.94 µM
- Activity (MDA-MB-231 [4]): 49.9%
- IC50 (MCF7): 7.61 µM
- inhibition (MDA-MB-231 [5]): Active
- Activity (MDA-MB-231 [6]): 18.7%
- inhibition [7]: 16.3%
- Activity (MDA-MB-231 [8]): 51.6%
- Activity (MDA-MB-231 [9]): 42.5%
- Activity (MDA-MB-231 [10]): 7.01%
- Activity (T47D [11]): 0.347%
- inhibition (MDA-MB-231 [12]): Tde
- Activity (T47D [13]): 80.8%
- Activity (T47D [14]): 75.1%
- Activity (T47D [15]): 8.49%
- Activity (T47D [16]): 10.5%
- Activity (T47D [17]): 0.132%
- inhibition (MDA-MB-231 [18]): Active
- Activity (MDA-MB-231 [19]): Active
- Activity (T47D [20]): 10.6%
- IC50 (MDA-MB-231 [21]): 3.61 µM
- inhibition (MDA-MB-231 [22]): Active
- IC50 (PC-3): 11 µM
- Activity (MDA-MB-231 [23]): 0.595%
- IC50 [24]: 0.18 µM
- Activity (MDA-MB-231 [25]): 28.6%

Structure (SMILES): O=C(Nc1ccc(-c2nc(N3CCOCC3)nc(N3CCOCC3)n2)cc1)Nc1ccc(Cl)c(-c2ccccc2)c1
- IC50 (T47D [1]): 15.4 µM
- inhibition [7]: 57.1%
- IC50 [24]: 3.45 µM

Structure (SMILES): O=C(Nc1ccc(-c2nc(N3CCOCC3)nc(N3CCOCC3)n2)cc1)Nc1ccc(Cl)c(-c2cccs2)c1
- IC50 (T47D [1]): 44.1 µM

Structure (SMILES): Nc1cc(C(F)(F)F)c(-c2cc(N3CCOCC3)nc(N3CCOCC3)n2)cn1 [BUPARLISIB]
- IC50 (T47D [1]): 6.92 µM
- IC50 (MCF7): 11.1 µM
- IC50 (MDA-MB-231 [21]): 1.88 µM
- IC50 (PC-3): 5.34 µM

Structure (SMILES): O=C(Nc1ccc(-c2ccnc(N3CCOCC3)n2)cc1)Nc1ccc(Cl)c(-c2ccsc2)c1
- IC50 (T47D [1]): 22.6 µM

Structure (SMILES): O=C(Nc1ccc(-c2cc(N3CCOCC3)nc(N3CCOCC3)n2)cc1)Nc1ccc(Cl)c(-c2cccnc2)c1
- IC50 (T47D [1]): 3.96 µM
- IC50 (MCF7): 9.15 µM
- inhibition [7]: 35.1%
- IC50 (MDA-MB-231 [21]): 8.49 µM
- IC50 (PC-3): 15.5 µM
- IC50 [24]: 0.33 µM

Structure (SMILES): CS(=O)(=O)c1ccc(C(=O)Nc2ccc(-c3cc(N4CCOCC4)nc(N4CCOCC4)n3)cc2)c(Cl)c1
- IC50 (T47D [1]): 22.3 µM

Structure (SMILES): O=C(Nc1ccc(-c2ccnc(N3CCOCC3)n2)cc1)Nc1ccc(Cl)c(-c2ccccc2)c1
- IC50 (T47D [1]): 44.6 µM

Structure (SMILES): O=C(Nc1ccc(-c2ccnc(N3CCOCC3)n2)cc1)Nc1ccc(Cl)c(-c2cccnc2)c1
- IC50 (T47D [1]): 4.11 µM
- IC50 (MCF7): 16.8 µM
- inhibition [26]: 30%
- IC50 (MDA-MB-231 [21]): 14.5 µM
- IC50 (PC-3): 11.8 µM
- IC50 [24]: > 10 µM

Structure (SMILES): CS(=O)(=O)c1ccc(C(=O)Nc2ccc(-c3nc(N4CCOCC4)nc(N4CCOCC4)n3)cc2)c(Cl)c1
- IC50 (T47D [1]): 17.5 µM

Structure (SMILES): O=C(Nc1ccc(-c2nc(N3CCOCC3)nc(N3CCOCC3)n2)cc1)Nc1ccc(Cl)c(-c2ccccn2)c1
- IC50 (T47D [1]): 14.2 µM
- inhibition [7]: 6.8%
- IC50 [24]: 0.09 µM

Structure (SMILES): O=C(Nc1ccc(-c2ccnc(N3CCOCC3)n2)cc1)Nc1ccc(Cl)c(-c2ccncc2)c1
- IC50 (T47D [1]): 16 µM
- IC50 (MCF7): 19.2 µM
- IC50 (MDA-MB-231 [21]): 18.9 µM
- IC50 (PC-3): 17.7 µM

Structure (SMILES): O=C(Nc1ccc(-c2ccnc(N3CCOCC3)n2)cc1)Nc1ccc(Cl)c(-c2ccccn2)c1
- IC50 (T47D [1]): 23.1 µM

Structure (SMILES): O=C(Nc1ccc(-c2ccnc(N3CCOCC3)n2)cc1)Nc1ccc(Cl)c(-c2cccs2)c1
- IC50 (T47D [1]): 24.3 µM

Structure (SMILES): O=C(Nc1ccc(-c2cc(N3CCOCC3)nc(N3CCOCC3)n2)cc1)Nc1ccc(Cl)c(-c2ccccc2)c1
- IC50 (T47D [1]): 15.6 µM

Structure (SMILES): O=C(Nc1ccc(-c2cc(N3CCOCC3)nc(N3CCOCC3)n2)cc1)Nc1ccc(Cl)c(-c2cccs2)c1
- IC50 (T47D [1]): 25.4 µM

Structure (SMILES): O=C(Nc1ccc(-c2cc(N3CCOCC3)nc(N3CCOCC3)n2)cc1)Nc1ccc(Cl)c(-c2ccsc2)c1
- IC50 (T47D [1]): 18.7 µM

Structure (SMILES): O=C(Nc1ccc(-c2nc(N3CCOCC3)nc(N3CCOCC3)n2)cc1)Nc1ccc(Cl)c(-c2ccsc2)c1
- IC50 (T47D [1]): 23.2 µM

Structure (SMILES): O=C(Nc1ccc(-c2nc(N3CCOCC3)nc(N3CCOCC3)n2)cc1)Nc1ccc(Cl)c(-c2cccnc2)c1
- IC50 (T47D [1]): 9.38 µM
- IC50 (MCF7): 5.75 µM
- inhibition [7]: 26.6%
- IC50 (MDA-MB-231 [21]): 7.82 µM
- IC50 (PC-3): 5.37 µM
- IC50 [24]: 0.2 µM

Structure (SMILES): O=C(Nc1ccc(-c2cc(N3CCOCC3)nc(N3CCOCC3)n2)cc1)Nc1ccc(Cl)c(-c2ccncc2)c1
- IC50 (T47D [1]): 7.41 µM
- IC50 (MCF7): 8.2 µM
- inhibition [7]: 9.37%
- IC50 (MDA-MB-231 [21]): 7.32 µM
- IC50 (PC-3): 9.28 µM
- IC50 [24]: 0.26 µM

Structure (SMILES): CS(=O)(=O)c1ccc(C(=O)Nc2ccc(-c3ccnc(N4CCOCC4)n3)cc2)c(Cl)c1
- IC50 (T47D [1]): 25 µM

Structure (SMILES): CS(=O)(=O)c1ccc(C(=O)Nc2ccc(Cl)c(-c3ccccn3)c2)c(Cl)c1 [VISMODEGIB]
- IC50 (T47D [1]): 41.3 µM
- IC50 (MCF7): > 50 µM
- IC50 (MDA-MB-231 [21]): > 50 µM
- IC50 (PC-3): > 50 µM
